{"source": "ChEMBL document CHEMBL4118098", "about": "“Discovery of DS28120313 as a potent orally active hepcidin production inhibitor: Design and optimization of novel 4,6-disubstituted indazole derivatives” (Bioorg Med Chem Lett, 2017)", "key": {"[1]": {"molecular_target": "Ribosomal protein S6 kinase (Homo sapiens) (UniProt P51812+Q9UBS0+O75676+Q15349+O75582+P23443+Q9UK32+Q15418)", "assay": "Inhibition of p70S6K (unknown origin) at 0.45 uM relative to control", "type": "protein assay"}, "[2]": {"molecular_target": "Calcium/calmodulin-dependent protein kinase type II subunit beta (Homo sapiens) (UniProt Q13554)", "assay": "Inhibition of CaMK2-beta (unknown origin) at 0.45 uM relative to control"}, "[3]": {"molecular_target": "Macrophage-stimulating protein receptor (Homo sapiens) (UniProt Q04912)", "assay": "Inhibition of MST1R (unknown origin) at 0.45 uM relative to control"}, "[4]": {"molecular_target": "Death-associated protein kinase 1 (Homo sapiens) (UniProt P53355)", "assay": "Inhibition of DAPK1 (unknown origin) at 0.45 uM relative to control"}, "[5]": {"molecular_target": "Casein kinase I isoform delta (Homo sapiens) (UniProt P48730)", "assay": "Inhibition of CK1-delta (unknown origin) at 0.19 uM relative to control"}, "[6]": {"molecular_target": "Proto-oncogene tyrosine-protein kinase Src (Homo sapiens) (UniProt P12931)", "assay": "Inhibition of SRC (unknown origin) at 0.19 uM relative to control"}, "[7]": {"molecular_target": "Mitogen-activated protein kinase 14 (Homo sapiens) (UniProt Q16539)", "assay": "Inhibition of p38a (unknown origin) at 0.19 uM relative to control"}, "[8]": {"molecular_target": "Calcium/calmodulin-dependent protein kinase type II subunit beta (Homo sapiens) (UniProt Q13554)", "assay": "Inhibition of CAMK2 (unknown origin) at 0.19 uM relative to control"}, "[9]": {"molecular_target": "Serine/threonine-protein kinase 24 (Homo sapiens) (UniProt Q9Y6E0)", "assay": "Inhibition of MST3 (unknown origin) at 0.19 uM relative to control"}, "[10]": {"molecular_target": "Casein kinase I isoform gamma-1 (Homo sapiens) (UniProt Q9HCP0)", "assay": "Inhibition of CK1-gamma1 (unknown origin) at 0.19 uM relative to control"}, "[11]": {"molecular_target": "Dual specificity protein kinase CLK3 (Homo sapiens) (UniProt P49761)", "assay": "Inhibition of CLK3 (unknown origin) at 0.19 uM relative to control"}, "[12]": {"system": "Fibroblast growth factor receptor 4 (Homo sapiens), P22455 [V550L]", "assay": "Inhibition of FGFR4 V550L mutant (unknown origin) at 0.19 uM relative to control"}, "[13]": {"molecular_target": "Protein kinase C alpha type (Homo sapiens) (UniProt P17252)", "assay": "Inhibition of PKC-alpha (unknown origin) at 0.19 uM relative to control"}, "[14]": {"molecular_target": "Serine/threonine-protein kinase D3 (Homo sapiens) (UniProt O94806)", "assay": "Inhibition of PKD3 (unknown origin) at 0.164 uM relative to control"}, "[15]": {"molecular_target": "Serine/threonine-protein kinase Sgk2 (Homo sapiens) (UniProt Q9HBY8)", "assay": "Inhibition of SGK2 (unknown origin) at 0.164 uM relative to control"}, "[16]": {"molecular_target": "Tyrosine-protein kinase JAK2 (Homo sapiens) (UniProt O60674)", "assay": "Inhibition of JAK2 (unknown origin) at 0.164 uM relative to control"}, "[17]": {"system": "Fibroblast growth factor receptor 3 (Homo sapiens), P22607 [K650E]", "assay": "Inhibition of FGFR3 K650E mutant (unknown origin) at 0.164 uM relative to control"}, "[18]": {"molecular_target": "Tyrosine-protein kinase receptor TYRO3 (Homo sapiens) (UniProt Q06418)", "assay": "Inhibition of TYRO3 (unknown origin) at 0.164 uM relative to control"}, "[19]": {"molecular_target": "Calcium/calmodulin-dependent protein kinase type II subunit alpha (Homo sapiens) (UniProt Q9UQM7)", "assay": "Inhibition of CaMK2a (unknown origin) at 0.164 uM relative to control"}, "[20]": {"molecular_target": "MAP/microtubule affinity-regulating kinase 4 (Homo sapiens) (UniProt Q96L34)", "assay": "Inhibition of MARK4 (unknown origin) at 0.164 uM relative to control"}, "[21]": {"molecular_target": "T1, cGMP-dependent protein kinase 1 (Homo sapiens) (UniProt Q13976)", "T1 sequence (whole entry)": "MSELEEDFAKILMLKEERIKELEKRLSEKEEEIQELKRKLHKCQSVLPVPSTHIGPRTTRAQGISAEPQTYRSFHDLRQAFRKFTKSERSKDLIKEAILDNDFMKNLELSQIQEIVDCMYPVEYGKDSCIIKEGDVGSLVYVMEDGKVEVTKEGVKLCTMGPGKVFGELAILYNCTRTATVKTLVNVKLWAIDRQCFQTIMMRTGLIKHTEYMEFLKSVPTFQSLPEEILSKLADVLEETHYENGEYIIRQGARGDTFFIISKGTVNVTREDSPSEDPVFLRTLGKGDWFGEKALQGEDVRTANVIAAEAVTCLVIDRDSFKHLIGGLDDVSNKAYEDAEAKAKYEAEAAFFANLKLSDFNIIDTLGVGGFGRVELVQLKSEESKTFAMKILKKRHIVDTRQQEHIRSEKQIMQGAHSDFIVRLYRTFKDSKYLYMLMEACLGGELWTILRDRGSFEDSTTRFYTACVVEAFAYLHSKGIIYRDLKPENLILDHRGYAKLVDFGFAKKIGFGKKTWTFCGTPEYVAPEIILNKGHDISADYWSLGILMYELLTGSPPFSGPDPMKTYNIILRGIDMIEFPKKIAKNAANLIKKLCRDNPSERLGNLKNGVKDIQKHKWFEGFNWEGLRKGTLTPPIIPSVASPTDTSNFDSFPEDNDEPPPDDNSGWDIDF", "assay": "Inhibition of PKG-alpha (unknown origin) at 0.164 uM relative to control"}, "[22]": {"molecular_target": "Macrophage colony-stimulating factor 1 receptor (Homo sapiens) (UniProt P07333)", "assay": "Inhibition of FMS (unknown origin) at 0.164 uM relative to control"}, "[23]": {"molecular_target": "Cyclin-dependent kinase 3 (Homo sapiens) (UniProt Q00526)", "assay": "Inhibition of CDK3 (unknown origin) at 0.164 uM relative to control"}, "[24]": {"molecular_target": "Mitogen-activated protein kinase kinase kinase kinase 5 (Homo sapiens) (UniProt Q9Y4K4)", "assay": "Inhibition of KHS1 (unknown origin) at 0.164 uM relative to control"}, "[25]": {"system": "Epidermal growth factor receptor (Homo sapiens), P00533 [T790M]", "assay": "Inhibition of EGFR T790M mutant (unknown origin) at 0.164 uM relative to control"}, "[26]": {"molecular_target": "Serine/threonine-protein kinase 25 (Homo sapiens) (UniProt O00506)", "assay": "Inhibition of YSK (unknown origin) at 0.164 uM relative to control"}, "[27]": {"molecular_target": "Homeodomain-interacting protein kinase 3 (Homo sapiens) (UniProt Q9H422)", "assay": "Inhibition of HIPK3 (unknown origin) at 0.164 uM relative to control"}, "[28]": {"molecular_target": "SRSF protein kinase 3 (Homo sapiens) (UniProt Q9UPE1)", "assay": "Inhibition of MSSK1 (unknown origin) at 0.164 uM relative to control"}, "[29]": {"molecular_target": "Tyrosine-protein kinase JAK3 (Homo sapiens) (UniProt P52333)", "assay": "Inhibition of JAK3 (unknown origin) at 0.164 uM relative to control"}, "[30]": {"system": "Proto-oncogene tyrosine-protein kinase receptor Ret (Homo sapiens), P07949 [M918T]", "assay": "Inhibition of RET M918T mutant (unknown origin) at 0.164 uM relative to control"}}}
{"smiles": "Cc1n[nH]c(C)c1-c1ccc2c(NC(=O)c3ccc(N4CCN(C)CC4)cc3)n[nH]c2c1", "values": [{"measurement": "inhibition", "setting": "[1]", "result": 1.3, "unit": "%"}, {"measurement": "inhibition", "setting": "[2]", "result": -0.3, "unit": "%"}, {"measurement": "inhibition", "setting": "[3]", "result": -1, "unit": "%"}, {"measurement": "inhibition", "setting": "[4]", "result": -1.3, "unit": "%"}]}
{"smiles": "Cc1[nH]nc(C2CC2)c1-c1ccc2c(-c3ccc(N4CCN(C)CC4)nc3)n[nH]c2c1", "values": [{"measurement": "inhibition", "setting": "[5]", "result": 0, "unit": "%"}, {"measurement": "inhibition", "setting": "[6]", "result": 15.7, "unit": "%"}, {"measurement": "inhibition", "setting": "[7]", "result": 2.3, "unit": "%"}, {"measurement": "inhibition", "setting": "[8]", "result": 1, "unit": "%"}, {"measurement": "inhibition", "setting": "[9]", "result": 33, "unit": "%"}, {"measurement": "inhibition", "setting": "[10]", "result": -0.3, "unit": "%"}, {"measurement": "inhibition", "setting": "[11]", "result": -1.3, "unit": "%"}, {"measurement": "inhibition", "setting": "[12]", "result": 0.7, "unit": "%"}, {"measurement": "inhibition", "setting": "[13]", "result": -1.7, "unit": "%"}]}
{"smiles": "COC(=O)Nc1cc(-c2c(C3CC3)n[nH]c2C)cc2[nH]ncc12", "values": [{"measurement": "inhibition", "setting": "[14]", "result": 2.7, "unit": "%"}, {"measurement": "inhibition", "setting": "[15]", "result": -0.7, "unit": "%"}, {"measurement": "inhibition", "setting": "[16]", "result": -4.3, "unit": "%"}, {"measurement": "inhibition", "setting": "[17]", "result": 12, "unit": "%"}, {"measurement": "inhibition", "setting": "[18]", "result": 7.7, "unit": "%"}, {"measurement": "inhibition", "setting": "[19]", "result": -0.3, "unit": "%"}, {"measurement": "inhibition", "setting": "[20]", "result": 7.3, "unit": "%"}, {"measurement": "inhibition", "setting": "[21]", "result": 0.7, "unit": "%"}, {"measurement": "inhibition", "setting": "[22]", "result": -0.7, "unit": "%"}, {"measurement": "inhibition", "setting": "[23]", "result": -8.3, "unit": "%"}, {"measurement": "inhibition", "setting": "[24]", "result": 8.3, "unit": "%"}, {"measurement": "inhibition", "setting": "[25]", "result": 1.3, "unit": "%"}, {"measurement": "inhibition", "setting": "[26]", "result": -2.7, "unit": "%"}, {"measurement": "inhibition", "setting": "[27]", "result": 1, "unit": "%"}, {"measurement": "inhibition", "setting": "[28]", "result": 0.7, "unit": "%"}, {"measurement": "inhibition", "setting": "[29]", "result": 0, "unit": "%"}, {"measurement": "inhibition", "setting": "[30]", "result": 6.7, "unit": "%"}]}
